# Measurements as given in ChEMBL document CHEMBL1149135, “Aza-peptide Michael acceptors: a new class of inhibitors specific for caspases and other clan CD cysteine proteases” (J Med Chem, 2004).
# Key:
# Caspase-8 (Homo sapiens) = Caspase-8 (Homo sapiens) (UniProt Q14790); experiment: Compound was evaluated for potent inhibition of caspase-8
# Caspase-6 (Homo sapiens) = target: T1, Caspase-6 (Homo sapiens) (UniProt P55212); experiment: Compound was evaluated for potent inhibition of caspase-6
# T1 sequence (whole entry): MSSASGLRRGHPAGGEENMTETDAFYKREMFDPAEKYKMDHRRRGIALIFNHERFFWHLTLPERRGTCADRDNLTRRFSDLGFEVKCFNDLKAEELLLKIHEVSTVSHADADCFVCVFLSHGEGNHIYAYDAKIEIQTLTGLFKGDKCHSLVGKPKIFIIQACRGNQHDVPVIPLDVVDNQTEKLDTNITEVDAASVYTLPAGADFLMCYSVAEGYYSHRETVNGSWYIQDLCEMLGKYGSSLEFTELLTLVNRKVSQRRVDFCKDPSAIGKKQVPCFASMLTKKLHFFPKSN
# Caspase-3 (Homo sapiens) = target: T2, Caspase-3 (Homo sapiens) (UniProt P42574); experiment: Compound was evaluated for potent inhibition of caspase-3
# T2 sequence (whole entry): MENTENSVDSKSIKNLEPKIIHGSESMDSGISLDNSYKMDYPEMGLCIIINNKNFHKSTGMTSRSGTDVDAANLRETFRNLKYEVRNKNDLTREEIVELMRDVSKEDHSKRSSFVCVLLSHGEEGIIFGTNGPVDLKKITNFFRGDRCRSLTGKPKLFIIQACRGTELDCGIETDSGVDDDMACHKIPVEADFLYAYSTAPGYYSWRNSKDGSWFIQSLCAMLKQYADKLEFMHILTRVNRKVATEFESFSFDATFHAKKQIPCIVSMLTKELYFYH
# [1] = system: Clostripain (Clostridium histolyticum); experiment: Compound was evaluated for irreversible inhibition of clostripain
# [2] = system: Lys-gingipain (Porphyromonas gingivalis); experiment: Compound was evaluated for irreversible inhibition of Lys-gingipain
# Sequence of Caspase-8 (Homo sapiens) (Q14790 217-374 limits assumed): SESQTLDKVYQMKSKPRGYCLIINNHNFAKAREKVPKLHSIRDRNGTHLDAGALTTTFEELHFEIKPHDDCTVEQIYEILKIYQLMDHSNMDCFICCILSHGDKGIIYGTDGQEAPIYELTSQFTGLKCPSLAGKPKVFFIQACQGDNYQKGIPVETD
# Sequence of Caspase-8 (Homo sapiens) (Q14790 385-479 limits assumed): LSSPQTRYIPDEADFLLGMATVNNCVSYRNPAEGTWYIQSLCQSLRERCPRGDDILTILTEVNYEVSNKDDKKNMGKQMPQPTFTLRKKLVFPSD
SMILES,k2 (Caspase-8 (Homo sapiens)) [M⁻¹ s⁻¹],k2 (Caspase-6 (Homo sapiens)) [M⁻¹ s⁻¹],k2 (Caspase-3 (Homo sapiens)) [M⁻¹ s⁻¹],k2 [1] [M⁻¹ s⁻¹],k2 [2] [M⁻¹ s⁻¹]
CC(C)C[C@H](NC(=O)OCc1ccccc1)C(=O)N[C@@H](CCC(=O)O)C(=O)N[C@H](C(=O)NN(CC(=O)O)C(=O)/C=C/C(=O)N(C)Cc1ccccc1)[C@@H](C)O,169000,10800,6000,–,–
CC(C)[C@H](NC(=O)[C@H](CCC(=O)O)NC(=O)[C@H](CC(=O)O)NC(=O)OCc1ccccc1)C(=O)NN(CC(=O)O)C(=O)/C=C/C(=O)NCc1ccccc1,78200,3210,1.75e+06,–,–
CCOC(=O)/C=C/C(=O)N(CC(=O)O)NC(=O)[C@@H](NC(=O)[C@H](CCC(=O)O)NC(=O)[C@H](CC(C)C)NC(=O)OCc1ccccc1)[C@@H](C)O,237000,18700,5560,–,–
CC(C)[C@H](NC(=O)[C@H](CCC(=O)O)NC(=O)[C@H](CC(=O)O)NC(=O)OCc1ccccc1)C(=O)NN(CC(=O)O)C(=O)/C=C/C(=O)N(C)Cc1ccccc1,90300,9500,2.64e+06,–,–
CC(C)[C@H](NC(=O)[C@H](CCC(=O)O)NC(=O)[C@H](CC(=O)O)NC(=O)OCc1ccccc1)C(=O)NN(CC(=O)O)C(=O)/C=C/C(=O)OCc1ccccc1,121000,8470,1.7e+06,–,–
CCOC(=O)/C=C/C(=O)N(CCCN)NC(=O)[C@H](CC(C)C)NC(=O)OCCc1ccccc1,–,–,–,788,927000
CCOC(=O)/C=C/C(=O)N(CC(=O)O)NC(=O)[C@@H](NC(=O)[C@H](CCC(=O)O)NC(=O)[C@H](CC(=O)O)NC(=O)OCc1ccccc1)C(C)C,273000,35600,2.13e+06,–,–
CCOC(=O)/C=C/C(=O)N(CCCCN)NC(=O)[C@H](CC(C)C)NC(=O)OCCc1ccccc1,–,–,–,40800,3.28e+06
CC(C)C[C@H](NC(=O)OCc1ccccc1)C(=O)N[C@@H](CCC(=O)O)C(=O)N[C@H](C(=O)NN(CC(=O)O)C(=O)/C=C/C(=O)OCc1ccccc1)[C@@H](C)O,98400,47600,4600,–,–
